Tests used:
[1] = target: T1, 5-HT1A(h) (Homo sapiens, UniProt P08908); assay: Radioligand binding, 5-HT1A (Eurofins CEREP); details: 1.0 × 10^−05 M; agonist radioligand; read-out: percent inhibition of the binding of a radioactively labeled ligand
T1 construct: Eurofins CEREP
T1 sequence (P08908 1-422): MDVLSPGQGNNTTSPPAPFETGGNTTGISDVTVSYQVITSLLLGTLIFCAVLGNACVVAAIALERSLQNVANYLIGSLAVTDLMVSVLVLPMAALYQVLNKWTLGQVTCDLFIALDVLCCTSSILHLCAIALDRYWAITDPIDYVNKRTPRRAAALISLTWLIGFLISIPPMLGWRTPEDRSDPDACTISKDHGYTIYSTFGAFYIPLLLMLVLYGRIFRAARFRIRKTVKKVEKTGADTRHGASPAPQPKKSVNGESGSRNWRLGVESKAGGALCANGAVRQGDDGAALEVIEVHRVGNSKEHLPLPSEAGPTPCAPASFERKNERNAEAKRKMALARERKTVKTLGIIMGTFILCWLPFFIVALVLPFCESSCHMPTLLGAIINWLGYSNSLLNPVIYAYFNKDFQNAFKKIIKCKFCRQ
Text: (§1) Table A discloses mazindol and Met tested at […] and the compound binding calculated as a percent inhibition of the binding of a radioactively labeled ligand specific for each target (Eurofins CEREP, France).
(§2) An inhibition or stimulation of more than 50% is considered a significant effect of the test compounds. Fifty percent is a common cut-off for further investigation (i.e. determination of IC50 or EC50 values from concentration-response curves).
(§3) The results are expressed as a percent of control specific binding obtained in the presence of the test compounds:
(§4) [formula] and as a percent inhibition of control specific binding obtained in the presence of the test compounds: […]

[2] = target: T2, Dopamine transporter(h) (Homo sapiens, UniProt Q01959); assay: Radioligand binding, dopamine transporter (Eurofins CEREP); details: 1.0 × 10^−05 M; antagonist radioligand; read-out: percent inhibition of the binding of a radioactively labeled ligand
T2 construct: Eurofins CEREP
Text: as §1, §2, §3, §4

[3] = target: T3, H1(h) (Homo sapiens, UniProt P35367); assay: Radioligand binding, H1 (Eurofins CEREP); details: 1.0 × 10^−05 M; antagonist radioligand; read-out: percent inhibition of the binding of a radioactively labeled ligand
T3 construct: Eurofins CEREP
Text: as §1
as §2, with “curves). Tables B and C display the binding profiles for Mazindol and Met.” for “curves).”
as §3, §4

[4] = target: T4, Norepinephrine transporter (h) (Homo sapiens, UniProt P23975); assay: Radioligand binding, norepinephrine transporter (Eurofins CEREP); details: 1.0 × 10^−05 M; antagonist radioligand; read-out: percent inhibition of the binding of a radioactively labeled ligand
T4 construct: Eurofins CEREP
Text: as §1
as §2, with “curves). Tables B and C display the binding profiles for Mazindol and Met.” for “curves).”
as §3, §4

[5] = Pharmacokinetics of mazindol after oral administration; details: immediate release formulation

T3 sequence (P35367 whole entry): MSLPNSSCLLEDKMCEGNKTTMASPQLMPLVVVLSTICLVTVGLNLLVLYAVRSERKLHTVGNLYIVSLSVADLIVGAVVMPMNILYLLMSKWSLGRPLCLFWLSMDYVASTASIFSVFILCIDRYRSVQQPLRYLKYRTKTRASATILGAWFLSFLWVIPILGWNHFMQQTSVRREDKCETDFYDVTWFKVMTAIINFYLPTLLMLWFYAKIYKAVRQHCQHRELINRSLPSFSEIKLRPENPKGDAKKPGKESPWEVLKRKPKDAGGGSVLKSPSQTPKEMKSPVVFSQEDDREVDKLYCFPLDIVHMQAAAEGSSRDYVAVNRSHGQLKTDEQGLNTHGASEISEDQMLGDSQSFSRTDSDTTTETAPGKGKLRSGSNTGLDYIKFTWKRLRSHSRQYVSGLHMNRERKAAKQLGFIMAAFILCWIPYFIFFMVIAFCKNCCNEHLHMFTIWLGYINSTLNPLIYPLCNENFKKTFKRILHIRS
T4 sequence (P23975 whole entry): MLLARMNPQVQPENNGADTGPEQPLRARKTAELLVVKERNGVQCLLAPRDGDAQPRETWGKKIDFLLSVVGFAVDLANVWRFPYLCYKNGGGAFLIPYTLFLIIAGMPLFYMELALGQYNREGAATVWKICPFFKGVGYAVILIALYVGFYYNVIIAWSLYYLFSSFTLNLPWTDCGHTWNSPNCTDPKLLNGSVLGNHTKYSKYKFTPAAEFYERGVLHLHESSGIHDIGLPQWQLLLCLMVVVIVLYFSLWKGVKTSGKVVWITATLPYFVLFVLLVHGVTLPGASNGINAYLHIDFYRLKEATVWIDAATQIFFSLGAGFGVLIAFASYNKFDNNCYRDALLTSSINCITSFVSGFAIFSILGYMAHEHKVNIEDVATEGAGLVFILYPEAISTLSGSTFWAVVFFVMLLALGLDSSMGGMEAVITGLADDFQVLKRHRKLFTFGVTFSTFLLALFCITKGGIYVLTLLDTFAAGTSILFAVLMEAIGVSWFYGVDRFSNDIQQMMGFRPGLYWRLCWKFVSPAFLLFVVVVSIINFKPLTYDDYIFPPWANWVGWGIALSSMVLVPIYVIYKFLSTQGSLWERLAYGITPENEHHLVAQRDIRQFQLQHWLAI
T2 sequence (Q01959 whole entry): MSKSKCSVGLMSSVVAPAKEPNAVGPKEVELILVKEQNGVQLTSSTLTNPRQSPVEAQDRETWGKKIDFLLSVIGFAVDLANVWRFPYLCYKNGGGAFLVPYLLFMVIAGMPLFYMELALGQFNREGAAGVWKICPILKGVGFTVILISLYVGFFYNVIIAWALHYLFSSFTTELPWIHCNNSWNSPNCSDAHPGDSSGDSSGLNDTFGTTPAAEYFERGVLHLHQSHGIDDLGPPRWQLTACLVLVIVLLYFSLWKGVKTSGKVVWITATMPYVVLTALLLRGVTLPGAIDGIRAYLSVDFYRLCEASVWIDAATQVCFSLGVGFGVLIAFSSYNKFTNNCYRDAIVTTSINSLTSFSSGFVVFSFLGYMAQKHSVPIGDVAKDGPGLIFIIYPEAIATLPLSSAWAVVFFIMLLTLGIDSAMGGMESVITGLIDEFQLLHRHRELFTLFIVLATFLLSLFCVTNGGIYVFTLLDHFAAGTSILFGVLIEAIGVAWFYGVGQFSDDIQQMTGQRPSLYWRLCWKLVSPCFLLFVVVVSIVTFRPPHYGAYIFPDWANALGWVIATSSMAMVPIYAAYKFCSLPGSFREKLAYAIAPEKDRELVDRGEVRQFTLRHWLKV

OC1(c2ccc(Cl)cc2)c2ccccc2C2=NCCN21 (centres unmarked) [Mazindol, 5-(4-chlorophenyl)-2,5-dihydro-3 H-imadazo[2,1-a]isoindol-5-ol]
inhibition at 10 µM [1]: 89.5%
inhibition at 10 µM [2]: 98.2%
inhibition at 10 µM [3]: 75.3%
inhibition at 10 µM [4]: 100%
time to steady-state concentrations [5]: 30 to 55 h

From US11596622B2, “Mazindol treatment for heroin dependence and substance use disorder” (NLS Pharmaceutics AG, priority 2017, dated 2023)
